# According to US8697385B1, “Protein controlling synthesis of collagen and associated methods” (Florida State University Research Foundation, Inc., priority 2009, dated 2014):
# Columns and labels:
# [1] = test system: lung fibroblasts; assay: Apoptosis of primary lung fibroblasts; type: cell-based; conditions: lung fibroblasts after ML-7 treatment; without treatment 2.2%
# Text: (§1) To assess the role of nonmuscle myosin in collagen synthesis, we disrupted nonmuscle myosin filaments in two different cell types: primary human lung fibroblasts and primary scleroderma skin fibroblasts. These cells are responsible for lung and skin fibrosis. […] To assess the effect of ML-7 on collagen protein synthesis and secretion, we analyzed the levels of collagen α1(I) and α2(I) polypeptides in the intracellularly space and in the medium using Western blot analysis and chain-specific antibodies.^12,15,31-33 ML-7 treatment profoundly affected the secretion of type I collagen, but the effect differed in the two types of primary fibroblasts. […] To assess if the secreted α1(I) polypeptides had been secreted as disulfide-bonded homotrimers, we performed Western blot analysis under nonreducing conditions (FIG. 3d). […] However, since α2(I) polypeptide was absent in the cell medium of ML-7-treated cells, the bands must represent disulfide-bonded collagen α1(I) chains. The α2(I) antibody could not recognize the polypeptide under nonreducing conditions, so we could not directly test its presence in S—S bonded collagen. Since there are reports that ML-7 can cause apoptosis of epithelial cells, we tested if ML-7 caused apoptosis of the primary fibroblasts. […] Therefore, we concluded that increased apoptosis is not responsible for the observed effects of ML-7. […]
# [2] = test system: scleroderma fibroblasts; assay: Apoptosis of primary scleroderma fibroblasts; type: cell-based; conditions: ML-7 did not have an effect
# Text: as §1
# [3] = test system: lung fibroblasts and scleroderma fibroblasts; assay: Intracellular collagen degradation with proteosome inhibitor epoxomycin, Western blot; type: cell-based, human
# Text: FIG. 3 Disruption of nonmuscle myosin by ML-7 results in secretion of homotrimeric type I collagen. (a) ML-7 disrupts nonmuscle myosin filaments. Immunostaining of nonmuscle myosin IIB in control lung fibroblasts (CON) and in lung fibroblasts treated with ML-7 (ML-7). […] Western blot analysis of control cells (lane 1) and cells treated with ML-7 (lane 2) using anti-myosin IIB antibody (MYO IIB). Fibronectin (FIB), loading control. (c) Effect of ML-7 on collagen secretion from lung fibroblasts. Western blot analysis of cellular proteins from control cells (lane 2) and ML-7-treated cells (lane 1), and of medium proteins from control cells (lane 4) and ML-7-treated cells (lane 3). COL1A1, collagen α1(I) polypeptide; COL1A2, collagen α2(I) polypeptide; FIB, fibronectin as loading control. […] The medium samples from (c) were analyzed under reducing conditions (lanes 1 and 2) and nonreducing conditions […] with antibody specific for collagen α1(I) polypeptide. […] Intracellular collagen was analyzed by Western blot analysis using antibodies against collagen α1(I) polypeptide (COL1A1) and α2(I) polypeptide (COL1A2). […]
# Protein concentration was estimated by the Bradford assay, with bovine serum albumin as standard.^51 Western blot analyses of cellular proteins were performed using 50 μg of protein. […] The medium was collected, and an aliquot was analyzed directly by Western blot analysis. […]
structure (smiles),measurement,setting,value
O=S(=O)(c1cccc2c(I)cccc12)N1CCCNCC1 [ML-7],percentage of apoptotic cells,[1],4.2%
same,percentage of apoptotic cells,[2],0.3%
same,intracellular level of both collagen polypeptides,"[3]; ML-7 in combination with epoxomycin vs epoxomycin alone, lung and scleroderma fibroblasts",significantly increased
same,additional (degradation) product of approximately 120 kDa,"[3]; epoxomycin and ML-7, not seen with epoxomycin alone",prominently seen
